Test results taken from patent publication US8431596B2 (Cancer Research Technology Limited, priority 2007, dated 2013).

Biological target: T1, AXL (human catalytic domain) (Homo sapiens, UniProt P30530)
T1 construct: purchased Upstate Ltd. 14-512
T1 sequence (P30530 473-894): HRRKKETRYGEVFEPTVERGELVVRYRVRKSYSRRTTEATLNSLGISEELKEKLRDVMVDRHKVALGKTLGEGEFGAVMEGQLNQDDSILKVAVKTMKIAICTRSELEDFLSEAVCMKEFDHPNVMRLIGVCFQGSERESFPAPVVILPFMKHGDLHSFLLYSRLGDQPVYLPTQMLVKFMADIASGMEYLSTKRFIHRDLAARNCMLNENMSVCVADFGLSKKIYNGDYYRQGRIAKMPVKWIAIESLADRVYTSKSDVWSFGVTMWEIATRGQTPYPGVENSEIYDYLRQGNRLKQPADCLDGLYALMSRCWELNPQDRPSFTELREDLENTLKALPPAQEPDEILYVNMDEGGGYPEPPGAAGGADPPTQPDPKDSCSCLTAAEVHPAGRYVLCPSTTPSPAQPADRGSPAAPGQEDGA
Test: AXL (human catalytic domain) Enzyme Activity Assay (IMAP fluorescence polarisation)
Assay type: biochemical
Method: Biological Methods AXL (human catalytic domain) Enzyme Activity Assay Reagents
Kinase Assay Reaction Buffer: This consisted of 20 mM HEPES pH 7.0, 10 mM MgCl2, 1 mM DTT, […], 0.01% Triton X100 (v/v), and 0.01% BSA (w/v). All buffer components were purchased from Sigma-Aldrich at reagent grade or higher.
Kinase: Recombinant AXL isoform 1 (aa473-894 corresponding to Genbank Accession Number NP 068713) at 2 mg/mL (20.8 μM) was purchased from Upstate Ltd. (Product code 14-512, lot #28164U). The enzyme was stored at −80° C. and a working stock was prepared to a concentration of 30 nM by diluting 20.8 μM stock 1:693 in cold (4° C.) 1× Reaction Buffer. Final enzyme concentration in the assay was 15 nM.
Substrate: Fluorescein labelled CSK-tide 5FAM-[…]-NH2 was obtained from Molecular Devices (Product code R7270) and used at a working concentration of 200 nM by diluting the 100 μM stock 1:500 in 1× Reaction Buffer in a mix with the enzyme. A negative control (lacking enzyme) was prepared at the same concentrations. Final substrate concentration in the assay was 100 nM.
ATP: Supplied by Sigma (product code A-7699). A 100 mM ATP stock was prepared in […] and used at a working concentration of 375 μM by diluting the 100 mM stock 1:266.6 in Reaction Buffer. Final ATP concentration in the assay was 150 μM; this concentration represents the KM.ATP for this enzyme calculated in this assay.
IMAP Reagents: IMAP screening express kit was obtained from Molecular Devices (product code R8127). The binding reagent was gently re-suspended before diluting by 1:1000 in buffer (Binding Buffer is supplied as a 5× stock and so was diluted with water prior to use—this assay used 40% buffer A and 60% buffer B) and then vortexed before addition to wells. The binding reagent was used at a final dilution of 1:1333.
1 μL samples of test compounds in 10% DMSO/water were added to “test” wells by dry-spotting using a Matrix Platemate Plus. 5 μL Kinase/Substrate in Reaction Buffer were added to columns 1-22 of a Corning black low binding 384 well #6754 (90 μL volume) microplate to give 12 nM and 100 nM reaction concentration respectively. 5 μL substrate in Reaction Buffer was added to columns 23 and 24 to give 100 nM reaction concentration. 4 μL ATP in Reaction Buffer was added to all wells to give 150 μM reaction concentration. The reaction mixture was then incubated at room temperature for 60 minutes. The incubation period was followed by the addition of 20 μL IMAP Binding Reagent in Binding Buffer to all wells. The IMAP reaction detection was further incubated at room temperature overnight. The FP on a Tecan Ultra Plate reader was recorded as a single read at Ex485 Em535.
Percentage inhibition was calculated based on activity of the test sample minus the average values in the blank wells relative to the average values measured in control wells minus the average values in the blank wells.
IC50 values were calculated from 10 point dose sigmoid ‘dose-response’ curves using XIfit software (IDBS Inc, USA). Data were fitted to a 4 parameter logistic model/sigmoidal dose response defined by the following equation:
[formula] where: • A=fit minimum (locked to 0); • B=fit maximum (locked to 100); • C=fit midpoint (pre-fit to 1); and • D=slope at linear portion of curve, hillslope (pre-fit to 0.1).
The value for C represents the IC50 of the test compound.

[1] = further data set (WW-001 through WW-169, XX-001 through XX-469, YY-001 through YY-016, ZZ-001 through ZZ-003), 150 μM ATP
[2] = first data set, recombinant AXL isoform 1 aa473-894, 150 μM ATP

Structure (SMILES)	IC50 [1]	IC50 [2]
O=C(NCc1ccc(Cl)cc1)c1cccc(-c2cccc3nc(Nc4ccc(OCCN5CCCC5)cc4)nn23)c1 [XX-462, N-(4-Chloro-benzyl)-3-{2-[4-(2-pyrrolidin-1-yl-ethoxy)-phenylamino]-[1,2,4]triazolo[1,5-a]pyridin-5-yl}-benzamide]	1 to 10 µM	
CCCCS(=O)(=O)NCc1cccc(-c2cccc3nc(Nc4ccc(OCCN5CCCC5)cc4)nn23)c1 [XX-324, Butane-1-sulfonic acid 3-{2-[4-(2-pyrrolidin-1-yl-ethoxy)-phenylamino]-[1,2,4]triazolo[1,5-a]pyridin-5-yl}-benzylamide]	1 to 10 µM	
O=C(Cc1cccc(Cl)c1)Nc1ccc(-c2cccc3nc(Nc4ccc(OCCN5CCCC5)cc4)nn23)cc1 [XX-222]	1 to 10 µM	
c1coc(-c2cccc3nc(Nc4ccc(OCCN5CCCC5)cc4)nn23)c1 [XX-203]	0.1 to 1 µM	
c1ccc(-c2cc(CNc3cccc(-c4cccc5nc(Nc6ccc(OCCN7CCCC7)cc6)nn45)c3)no2)cc1 [XX-445]	0.1 to 1 µM	
c1cc(NC2CCCC2)n2nc(Nc3ccc(OCCN4CCCC4)cc3)nc2c1 [XX-152, N*5*-Cyclopentyl-N*2*-[4-(2-pyrrolidin-1-yl-ethoxy)-phenyl]-[1,2,4]triazolo[1,5-a]pyridine-2,5-diamine]	1 to 10 µM	
CCCn1cc(-c2cccc3nc(Nc4ccc(OCCN5CCCC5)cc4)nn23)cn1 [XX-318]	≤ 0.1 µM	
COc1ccc(-c2cccc3nc(Nc4ccc(OCCN)cc4)nn23)cc1 [XX-046]	≤ 0.1 µM	< 1 µM
c1cc(NCCCN2CCCC2)cc(Nc2nc3cccc(-c4ccc5c(c4)OCCO5)n3n2)c1 [XX-117]	0.1 to 1 µM	
O=C(Nc1nc2cccc(-c3ccc(Cl)cc3)n2n1)C1CC1 [WW-023]	1 to 10 µM	1 to 10 µM
O=C(Nc1cccc(Cl)c1)c1cccc(-c2cccc3nc(Nc4ccc(OCCN5CCCC5)cc4)nn23)c1 [XX-322]	1 to 10 µM	
OCc1ccc(-c2cccc3nc(Nc4ccc(OCCN5CCCC5)cc4)nn23)cc1 [XX-237]	0.1 to 1 µM	
CN(C)c1ccc(-c2cccc3nc(NC(=O)C4CC4)nn23)cn1 [WW-036]	1 to 10 µM	1 to 10 µM
c1cc(NCc2ncc[nH]2)cc(-c2cccc3nc(Nc4ccc(OCCN5CCCC5)cc4)nn23)c1 [XX-261]	0.1 to 1 µM	
COc1ccc(-c2cccc3nc(Nc4cccc(C(=O)NCCN(C)C)c4)nn23)cc1 [XX-037]	≤ 0.1 µM	< 1 µM
Oc1ccc(-c2cccc3nc(Nc4ccc(OCCN5CCCC5)cc4)nn23)cc1F [XX-243]	0.1 to 1 µM	
O=C(Nc1nc2cccc(-c3ccc(N4CCOCC4)cc3)n2n1)C1CC1 [WW-026]	0.1 to 1 µM	< 1 µM
c1cc(-c2ccc3c(c2)OCCO3)n2nc(Nc3cnc(OCCN4CCCCC4)nc3)nc2c1 [XX-098]	1 to 10 µM	
Cc1cccc(-c2cccc3nc(NC(=O)C4CC4)nn23)c1 [WW-034]	1 to 10 µM	1 to 10 µM
COc1ccc(-c2cccc3nc(Nc4ccc(OC[C@H](c5ccccc5)N5CCCC5)cc4)nn23)cc1 [XX-413]	0.1 to 1 µM	
O=C(Nc1ccc(Cl)cc1)c1cccc(-c2cccc3nc(Nc4ccc(OCCN5CCCC5)cc4)nn23)c1 [XX-321]	1 to 10 µM	
CN(C)c1ccc(-c2cccc3nc(Nc4ccc(OCCN5CCCC5)cc4)nn23)cc1 [XX-206]	0.1 to 1 µM	
C[C@H](CN(C)C)Oc1ccc(Nc2nc3cccc(-c4ccc5c(c4)OCCO5)n3n2)cc1 [XX-155]	0.1 to 1 µM	
CN(C)CCOc1ccc(Nc2nc3cccc(-c4ccc5c(c4)CCO5)n3n2)cc1 [XX-053]	≤ 0.1 µM	< 1 µM
O=C(Nc1nc2cccc(-c3ccc(N4CCNCC4)cc3)n2n1)C1CC1 [WW-151, Cyclopropanecarboxylic acid [5-(4-piperazin-1-yl-phenyl)-[1,2,4]triazolo[1,5-a]pyridin-2-yl]-amide]	1 to 10 µM	1 to 10 µM

Structure (SMILES)	IC50 [1]	IC50 [2]
O=S(=O)(C1CCCCC1)n1cc(-c2cccc3nc(Nc4ccc(OCCN5CCCC5)cc4)nn23)cn1 [XX-381]	≤ 0.1 µM	
O=C(Cn1cc(-c2cccc3nc(Nc4ccc(OCCN5CCCC5)cc4)nn23)cn1)NCCO [XX-436]	0.1 to 1 µM	
Cc1ccc(-c2cccc(-c3cccc4nc(Nc5ccc(OCCN6CCCC6)cc5)nn34)c2)cc1 [XX-465]	1 to 10 µM	
Clc1ccc(-c2cccc3nc(Nc4ccc(OCCN5CCCC5)cc4)nn23)s1 [XX-299]	0.1 to 1 µM	
NCCCNc1ccc(-c2cccc3nc(NC(=O)C4CC4)nn23)cc1 [WW-157]	1 to 10 µM	1 to 10 µM
c1cc(-c2ccc3[nH]ccc3c2)n2nc(Nc3ccc(OCCN4CCCC4)cc3)nc2c1 [XX-281]	1 to 10 µM	
COc1ccc(-c2cccc3nc(NC(=O)C4CCCC4)nn23)cc1 [WW-046]	1 to 10 µM	1 to 10 µM
COc1cc(CNc2cccc(-c3cccc4nc(Nc5ccc(OCCN6CCCC6)cc5)nn34)c2)cc(OC)c1 [XX-450]	0.1 to 1 µM	
FC(F)(F)c1cccc(COc2cccc(-c3cccc4nc(Nc5ccc(OCCN6CCCC6)cc5)nn34)c2)c1 [XX-401]	1 to 10 µM	
c1cc(-c2ccc3c(c2)OCCO3)n2nc(Nc3ccnc(OCCN4CCCC4)c3)nc2c1 [XX-099]	0.1 to 1 µM	
c1cc(NCCN2CCCC2)cc(Nc2nc3cccc(-c4ccc5c(c4)OCCO5)n3n2)c1 [XX-116]	0.1 to 1 µM	
Fc1cc(Nc2nc3cccc(-c4ccc5c(c4)OCCO5)n3n2)ccc1OCCN1CCCC1 [XX-133]	≤ 0.1 µM	
CCN(CC)CCNc1cc(Nc2nc3cccc(-c4ccc(OC)cc4)n3n2)ccn1 [XX-300]	0.1 to 1 µM	
Cc1cc(CNc2cccc(-c3cccc4nc(Nc5ccc(OCCN6CCCC6)cc5)nn34)c2)no1 [XX-446]	0.1 to 1 µM	
O=C(Nc1nc2cccc(-c3ccccc3O)n2n1)C1CC1 [WW-037]	1 to 10 µM	1 to 10 µM
COc1cc(Nc2nc3cccc(-c4ccc5c(c4)OCCN5C)n3n2)ccc1OCCN1CCCC1 [XX-095]	0.1 to 1 µM	
CNCCCOc1ccc(Nc2nc3cccc(-c4ccc(OC)cc4)n3n2)cc1 [XX-040]		< 1 µM
c1cc(-c2ccc3c(c2)OCCO3)n2nc(Nc3ccc(OCCN4CCCCC4)cc3)nc2c1 [XX-054]	≤ 0.1 µM	< 1 µM
Cc1ccc(CCn2cc(-c3cccc4nc(Nc5ccc(OCCN6CCCC6)cc5)nn34)cn2)cc1 [XX-350]	0.1 to 1 µM	
CCCOc1cccc(-c2cccc3nc(Nc4ccc(OCCN5CCCC5)cc4)nn23)c1 [XX-405]	1 to 10 µM	
c1cc(-c2cnn(CC3CC3)c2)n2nc(Nc3ccc(OCCN4CCCC4)cc3)nc2c1 [XX-316]	≤ 0.1 µM	
CN1CCN(c2ccc(-c3cccc4nc(NC(=O)C5CC5)nn34)cc2)CC1 [WW-003, Cyclopropanecarboxylic acid {5-[4-(4-methyl-piperazin-1-yl)-phenyl]-[1,2,4]triazolo [1,5-a]pyridin-2-yl}-amide]	1 to 10 µM	1 to 10 µM
NCCNc1ccc(-c2cccc3nc(NC(=O)C4CC4)nn23)cc1 [WW-158, Cyclopropanecarboxylic acid {5-[4-(2-amino-ethylamino)-phenyl]-[1,2,4]triazolo[1,5-a]pyridin-2-yl}-amide]	1 to 10 µM	1 to 10 µM
Cc1ccccc1-c1cccc2nc(Nc3ccc(OCCN4CCCC4)cc3)nn12 [XX-212]	1 to 10 µM	
